{"source": "patent US7981878B2", "about": "“Tumor treatment with gliotoxin derivatives” (priority 2005, dated 2011)", "key": {"[1]": {"system": "HeLa cells (cervix carcinoma)", "assay": "Cell count analysis HeLa", "format": "cell-based, human", "settings": "0.2 μM gliotoxin, within 72 hours", "method": "(§1) FIG. 8 a-d: Effects of gliotoxin on cell counts of various human tumour cell lines in vitro. Cell counts of a) hepatocellular carcinoma cell lines HepG2, Huh7, SNU398, Hep3b, HeLa (cervix) and the cholangiocarcinoma cell line NEC as well as b) the pancreatic cancer cell line Panc-1 and the melanoma cell lines d) MelJuso, Meljuso-Bcl-2 (+) and 607B after 72 h treatment with 200 nM gliotoxin; c-d) Cell count dose range experiments with c) pancreatic carcinoma cell lines Panc-1 and MiaPaCa as well as melanoma cell lines MelJuso, 518A2 and 607B using 25, 50 100 and 200 nM gliotoxin for 24 h. All data are given relative to control ±standard deviation.\n(§2) Tumour cells were seeded at a density of 10,000 cells/well in 24-well plates. 24 h after seeding, medium containing gliotoxin was added to yield desired concentrations of gliotoxin. At time points indicated, culture medium was removed by suction. Adherent cells were washed with DPBS (Cambrex, Verviers, Belgium) and incubated with trypsin (Gibco) at 37° C. Detached cells were transferred to test tubes containing Cellpack isotonic fluid (Sysmex Europe, Bornbarch, Germany) and counted with a Coulter Z1 electronic cell counter (Beckman Coulter, Bedford, UK)."}, "HCT-15": {"system": "HCT-15", "settings": "cited from earlier work"}, "[2]": {"system": "MiaPaCa (pancreas carcinoma)", "assay": "Cell count analysis MiaPaCa", "format": "cell-based, human", "settings": "MiaPaCa, 25, 50, 100 and 200 nM, 24 h", "method": "as §1, §2"}, "Meljuso-wt (melanoma)": {"system": "Meljuso-wt (melanoma)", "assay": "Cell count analysis Meljuso-wt", "format": "cell-based, human", "method": "as §1, §2"}, "Notch2": {"system": "Notch2", "assay": "Notch2 activity band shift assay in Panc-1", "format": "cell-based, human", "settings": "Panc-1, 200 nM gliotoxin, 24 h", "method": "FIG. 10 a-b: Effects of gliotoxin on Notch2 regulation and apoptosis. The melanoma cell line 518A2 (A) and the pancreatic cancer cell line Panc-1 (B) were treated with 200 nM gliotoxin or vehicle control for 24 h Notch2 activity was analysed by band shift assay. Apoptosis was measured as annexin V and 7-AAD double positivity by FACS. Data are given as percentage of apoptotic cells ±standard deviation.\n500,000 cells were seeded on 12 cm^2 plates for 24 h and then treated with 200 nM gliotoxin. At the time points as indicated cells were harvested and immediately frozen at −80° C. The band shift assay was performed as described for B-CLL."}, "[3]": {"system": "HepG2 (hepatocellular carcinoma)", "assay": "Cell count analysis HepG2", "format": "cell-based, human", "settings": "HepG2, 200 nM gliotoxin, 72 h", "method": "as §1, §2"}, "B-CLL cells": {"system": "B-CLL cells", "assay": "Apoptosis of B-CLL cells by FACS (Probidium iodide/annexinV)", "format": "cell-based, human", "settings": "for apoptosis: 0.2 μM gliotoxin, 4 hours", "method": "FIG. 3: Gliotoxin is a potent Notch2 trans-activation inhibitor in B-CLL cells. (A) EMSA showing the inhibition of DNA-bound Notch2IC complexes in the presence of 0.2 μg Gliotoxin. B-CLL samples (n=10) were cultured in the presence of 1 ng/ml TPA with or without 0.2 μM Gliotoxin for 24 hours. Nuclear extracts were subjected to EMSA using a oligonucleotide probe spanning a well defined CBF1/NotchIC binding site derived from the CD23a promoter. (B). Corresponding FACS analysis (plus 10 additional B-CLL samples) showing the downregulation of the Notch2 target gene CD23 as well as the induction of apoptosis of Gliotoxin treated B-CLL samples. Columnes represent the percentage of CD19^+CD23^+ (grey bars) and apoptotic cells (black bars: including early apoptotic cells single positive for AnnexinV, and late apoptotic cells double positive for AnnexinV and probidium iodide), respectively.\nFIG. 4: Gliotoxin induces apoptosis in unstimulated as well as in TPA-stimulated B-CLL cells within 4 hours. Normal PBMCs (peripheral blood mononuclear cells) from healthy donors show a markedly lower Notch2 activity. Although gliotoxin inhibits Notch2 also in normal, TPA-stimulated cells, the gliotoxin-caused apoptosis rate is markedly lower in normal cells as compared to B-CLL cells. Non-stimulated and TPA stimulated PBMC's from healthy donors (HD) are less sensitive to 0.2 μM Gliotoxin despite a basal Notch2 activity. PBMC's and CLL cells were incubated with 0.2 μM Gliotoxin with or without TPA for 4 hours and the Notch2 activity as well as the percentage of apoptotic cells were determined by EMSA and FACS analysis, respectively.\nAs drug screening model, a cell culture system was established which conserves the phenotype of freshly isolated B-CLL cells (3×10^6 B-CLL cells/ml RPMI medium+10% FCS, supplemented with 1 ng/ml of TPA). Notch2 activity in the cell nucleus is determined by means of EMSA (electrophoretic mobility shift assay) experiments, and the cell viability (Probidium iodide/annexinV) and CD23 expression (Notch2 target gene) is determined by means of FACS (flow cytometry) analyses, respectively.\nB-CLL cells were cultured for 24 h in the presence of 0.2 μM/ml of gliotoxin. This treatment led to a dramatic loss of the transcriptional Notch2 activity, as shown in the following representative EMSA (FIG. 3).\nAfter 4 hours of gliotoxin treatment, massive signs of the starting apoptosis (AnnexinV+) could already be recognized in B-CLL cells. This effect was increased by TPA (a phorbol ester which stimulates the activation of lymphocytes)."}, "[4]": {"settings": "mice and rats; cited from earlier work"}, "RL-7": {"system": "RL-7", "assay": "Apoptosis FACS in leukaemia cell line RL-7", "format": "cell-based", "settings": "RL-7, 0.2 μM gliotoxin, 24 h", "method": "FIG. 7: (A) The apoptotic activity of gliotoxin on further B-CLL patient samples (CLL4-CLL8) is illustrated. The (non-Notch2-associated) leukaemia cell lines (or the leukaemia cell lines not characterised by ligand-independent Notch2 fragments) Jurkat (T-ALL), SH1 (hairy cell carcinoma), RL-7 and K562 (CML) are resistant to a treatment with 0.2 μM (corresponding to 60 ng/ml) of gliotoxin. Cells were incubated for 24 h+/−gliotoxin, and the percentage of apoptotic cells (probidium-iodide+/annexinV+) was determined by means of FACS analysis. In none of the 4 non-Notch2-associated cell lines indicated, the application of 0.2 μM of gliotoxin led to a significant induction of apoptosis within 24 hours. The cytotoxic effect of Gliotoxin correlates with the Notch2 activity in leukemias. (B) Corresponding EMSA showing the activity of Notch2 in B-CLL cells and in leukemic cell lines (Jurkat, SH1, RL7, and K562)."}, "[5]": {"system": "Meljuso-Bcl-2 (+) (Bcl-2 over expressing melanoma cell line)", "assay": "Cell count analysis Meljuso-Bcl-2 (+)", "format": "cell-based, human", "method": "as §1, §2"}}}
{"smiles": "CN1C(=O)[C@]23CC4=CC=C[C@H](O)[C@H]4N2C(=O)[C@@]1(CO)SS3", "note": "[gliotoxin, [3R-(3α,5aβ,6β,10aα)]-2,3,5a,6-tetrahydro-6-hydroxy-3-(hydroxymethyl)-2-methyl-10H-3,10a-epi-dithiopyrazino[1,2-a]indol-1,4-dion]", "values": [{"measurement": "effect on the cell count", "setting": "[1]", "value": "no significant effect"}, {"measurement": "IC50 with regard to cell viability", "setting": "HCT-15", "value": 39, "unit": "ng/mL"}, {"measurement": "cytotoxicity in dose range experiment (cell count)", "setting": "[2]", "value": "clear dose dependent cytotoxicity"}, {"measurement": "response", "setting": "Meljuso-wt (melanoma); MelJuso (−BCL2), 0.2 μM (60 ng/ml)", "value": "~100", "unit": "%"}, {"measurement": "cytotoxicity in dose range experiment (cell count)", "setting": "Meljuso-wt (melanoma); Meljuso, 25, 50, 100 and 200 nM, 24 h", "value": "clear dose dependent cytotoxicity"}, {"measurement": "effect on cell count", "setting": "Meljuso-wt (melanoma); Meljuso-wt, 200 nM gliotoxin, 72 h", "value": "very effective"}, {"measurement": "Notch2 activity (band shift assay)", "setting": "Notch2", "value": "only partly inhibited"}, {"measurement": "mean reduction of cell numbers compared to vehicle treated controls", "setting": "[3]", "value": 67, "unit": "%"}, {"measurement": "mean value of apoptosis", "setting": "B-CLL cells; B-CLL cells cultured 24 h with 0.2 μM gliotoxin, n=10", "value": 73, "unit": "%"}, {"measurement": "response", "setting": "B-CLL cells; B-CLL-cases, 0.2 μM (60 ng/ml)", "value": "~100", "unit": "%"}, {"measurement": "apoptosis", "setting": "B-CLL cells; TPA-stimulated B-CLL cells", "value": 73, "unit": "%"}, {"measurement": "apoptosis", "setting": "B-CLL cells; non-stimulated B-CLL cells", "value": 54, "unit": "%"}, {"measurement": "LD50", "setting": "[4]", "value": "25 to 50", "unit": "mg/kg"}, {"measurement": "induction of apoptosis (probidium-iodide+/annexinV+)", "setting": "RL-7", "value": "resistant"}, {"measurement": "response", "setting": "[5]; MelJuso +BCL2, 0.2 μM (60 ng/ml)", "value": "~100", "unit": "%"}, {"measurement": "cell count decrease", "setting": "[5]; Meljuso-Bcl-2 (+), 200 nM gliotoxin, 72 h", "value": 94, "unit": "%"}]}
